{"source": "patent US20020068038A1", "about": "“Foaming tablet for cleaning the oral cavity and preparation method thereof” (priority 1998, published 2002)", "key": {"[1]": {"test_system": "Lactobacillus casei"}, "[2]": {"test_system": "Streptococcuis mutans"}, "[3]": {"test_system": "Capnocytophaga ochraceus"}, "[4]": {"test_system": "Streptococcus sanguis"}, "[5]": {"test_system": "Bacterioides gingivalis"}, "[6]": {"test_system": "Fusobacterium nucleanum"}, "[7]": {"test_system": "Acetinobacillus"}, "[8]": {"test_system": "Eikenella corrdens"}, "[9]": {"conditions": "Lactobacillus casei, MH medium, 96 hours anaerobic cultivation at 37° C., less than 10 colonies on LRBB agar"}, "[10]": {"conditions": "Streptococcuis mutans, MH medium, 96 hours anaerobic cultivation at 37° C., less than 10 colonies on LRBB agar"}, "[11]": {"conditions": "Capnocytophaga ochraceus, MH medium, 96 hours anaerobic cultivation at 37° C., less than 10 colonies on LRBB agar"}, "[12]": {"conditions": "Streptococcus sanguis, MH medium, 96 hours anaerobic cultivation at 37° C., less than 10 colonies on LRBB agar"}, "[13]": {"conditions": "Bacterioides gingivalis, MH medium, 96 hours anaerobic cultivation at 37° C., less than 10 colonies on LRBB agar"}, "[14]": {"conditions": "Fusobacterium nucleanum, MH medium, 96 hours anaerobic cultivation at 37° C., less than 10 colonies on LRBB agar"}, "[15]": {"conditions": "Acetinobacillus, MH medium, 96 hours anaerobic cultivation at 37° C., less than 10 colonies on LRBB agar"}}, "note": "Where two headings read alike, the source gives them in different places.", "data": [{"molecule": "O=C([O-])O.[Na+]", "note": "[NaHCO3, sodium bicarbonate]", "values": [{"measurement": "disinfection concentration", "setting": "[1]", "value": 500}, {"measurement": "disinfection concentration", "setting": "[2]", "value": 450}, {"measurement": "disinfection concentration", "setting": "[3]", "value": 200}, {"measurement": "disinfection concentration", "setting": "[4]", "value": 500}, {"measurement": "disinfection concentration", "setting": "[5]", "value": 500}, {"measurement": "disinfection concentration", "setting": "[6]", "value": 450}, {"measurement": "disinfection concentration", "setting": "[7]", "value": 250}]}, {"molecule": "O=C([O-])O.[K+]", "note": "[KHCO3, potassium bicarbonate]", "values": [{"measurement": "disinfection concentration", "setting": "[1]", "value": 600}, {"measurement": "disinfection concentration", "setting": "[2]", "value": 600}, {"measurement": "disinfection concentration", "setting": "[8]", "value": 300}, {"measurement": "disinfection concentration", "setting": "[3]", "value": 150}, {"measurement": "disinfection concentration", "setting": "[4]", "value": 300}, {"measurement": "disinfection concentration", "setting": "[5]", "value": 100}, {"measurement": "disinfection concentration", "setting": "[7]", "value": 300}]}, {"molecule": "O=S(=O)([O-])[O-].[Mg+2]", "note": "[MgSO4, magnesium sulfate]", "values": [{"measurement": "disinfection concentration", "setting": "[1]; [9]", "value": "1,500"}, {"measurement": "disinfection concentration", "setting": "[2]; [10]", "value": "1,700"}, {"measurement": "disinfection concentration", "setting": "[3]; [11]", "value": 400}, {"measurement": "disinfection concentration", "setting": "[4]; [12]", "value": "1,600"}, {"measurement": "disinfection concentration", "setting": "[5]; [13]", "value": 600}, {"measurement": "disinfection concentration", "setting": "[6]; [14]", "value": 300}, {"measurement": "disinfection concentration", "setting": "[7]; [15]", "value": 300}]}, {"molecule": "[Cl-].[Na+]", "note": "[NaCl, sodium chloride]", "values": [{"measurement": "disinfection concentration", "setting": "[1]; [9]", "value": "1,200"}, {"measurement": "disinfection concentration", "setting": "[2]; [10]", "value": "1,300"}, {"measurement": "disinfection concentration", "setting": "[8]; Eikenella corrdens, MH medium, 96 hours anaerobic cultivation at 37° C., less than 10 colonies on LRBB agar", "value": 400}, {"measurement": "disinfection concentration", "setting": "[3]; [11]", "value": 350}, {"measurement": "disinfection concentration", "setting": "[4]; [12]", "value": "2,200"}, {"measurement": "disinfection concentration", "setting": "[5]; [13]", "value": 650}, {"measurement": "disinfection concentration", "setting": "[6]; [14]", "value": 400}, {"measurement": "disinfection concentration", "setting": "[7]; [15]", "value": 250}]}]}
